Earlier results as cited in patent publication US20260327216A1, “SUBSTITUTED OXAZOLONE COMPOUND FOR DECREASING LEVELS OF IKZF I-4 PROTEINS” (BRISTOL-MYERS SQUIBB COMPANY, priority 2023, published 2026).

Legend:
solid tumors = settings: patients with solid tumors / advanced malignancies; cited from earlier work
[1] = system: highly immunogenic syngeneic tumors; settings: engineered mouse models; Geng et al., 2022; cited from earlier work
T and NK cell functions = settings: preclinical and clinical studies; cited from earlier work

Row | Structure (SMILES) | clinical response in patients with solid tumors (solid tumors) | antitumor immune responses against highly immunogenic syngeneic tumors [1] | effect on T and NK cell functions (T and NK cell functions)
1 | Cc1nc2cccc(N)c2c(=O)n1C1CCC(=O)NC1=O (centres unmarked) [avadomide] | modest responses of stable disease |  | 
2 | Nc1cccc2c1CN(C1CCC(=O)NC1=O)C2=O (centres unmarked) [lenalidomide] | modest responses of stable disease | modestly increase antitumor immune responses | augment T and NK cell functions
3 | Nc1cccc2c1C(=O)N(C1CCC(=O)NC1=O)C2=O (centres unmarked) [pomalidomide] | modest responses of stable disease |  | 
